Tests used:
human monocytes = experiment: cGMP producing activity in monocytes; type: cell-based; details: 10^-12 to 10^-6 M, 15 minutes
Protocol: (§1) For experiments, the leukocyte layer (buffy coats) of peripheral blood from healthy volunteers (provided by Kyoto Red Cross Blood Center, Japan) was used. After the peripheral blood monocyte fraction was separated by density gradient centrifugation using Ficoll-Paque, the fraction was applied to a magnetic bead column using MACS CD14 or cultured in cell culture flasks at 37° C. for 1 hour to select the adhered cells, thereby separating monocytes. Immature dendritic cells were obtained by culturing the monocytes (2×10^5 cells/ml) for 7 days at 37° C. in the presence of 10% fetal bovine serum, 50 ng/mL human GM-CSF and 20 ng/mL human IL-4.
(§2) After the cells (1×10^5 cells/sample) were incubated in 500 μL of 10 mM HEPES, 0.5 mM 3-isobutyl-1-methylxanthine and 1 μM phospholamidon at 37° C. for 10 minutes, ANP or CNP was added to a final concentration of 10^−12 to 10^−6 M and incubation was continued for an additional 15 minutes. After the cells were washed and lysed, the intracellular cGMP concentration was measured by the ELISA method.

dendritic cells = experiment: Cytokine production from dendritic cells (ELISA); type: cell-based, human; details: for IL-10 production from dendritic cells / IL-12 production from dendritic cells / TNFα production from dendritic cells: LPS (1 μg/mL) stimulated, 24 hours, ANP 10^-8 to 10^-6 M, CNP 10^-6 M
Protocol: as §1
Dendritic cells were incubated for 24 hours with LPS (1 μg/mL) in the presence or absence of ANP (10^−8 M to 10^−6 M) or CNP (10^−6 M), and the levels of IL-12, IL-10 and TNFα in each culture supernatant were measured by the ELISA method.

[1] = system: naive CD4+ T cells cultured with dendritic cells; experiment: T cell proliferation induced by activated dendritic cells ([3H]-thymidine uptake); type: cell-based, human
Protocol: as §1
Naive T cells (naive CD4^+ T cells) were isolated from the monocyte fraction of umbilical cord blood using magnetic beads for MACS CD4^+ T cell isolation. Dendritic cells were activated by being cultured for 24 hours with lipopolysaccharide (LPS, 1 μg/mL) in the presence or absence of ANP (10^−7 M). The cells were washed and irradiated (30 Gy) to eliminate their proliferation ability, followed by culturing together with the naive T cells (1×10^5 cells/well) for 6 days. The T cells were evaluated for their proliferation ability by 8 hour uptake of [methyl-^3H]-thymidine (0.5 μCi/well).

immature dendritic cells = experiment: cGMP producing activity in immature dendritic cells; type: cell-based, human; details: 10^-12 to 10^-6 M, 15 minutes
Protocol: as §1, §2

[2] = system: naive T cells co-cultured with dendritic cells; experiment: Intracellular cytokine expression in naive T cells (dendritic cell-driven Th1/Th2 polarization, flow cytometry); type: cell-based, human; details: dendritic cells pretreated with LPS (1 μg/mL) + ANP (10^-7 M) versus LPS alone; Sample #1 and #2
Protocol: as §1
Dendritic cells were activated by being pre-incubated for 24 hours with LPS (1 μg/mL) in the presence or absence of ANP (10^−7 M) and then irradiated (30 Gy) to eliminate their proliferation ability. These dendritic cells (1×10^5 cells/well) and naive T cells separated from cord blood (1×10^6 cells/well) were co-cultured for 6 days. After the T cells were grown in the presence of IL-2 (50 U/mL) for an additional 8 days, the T cells were collected and stimulated for 4 hours with 50 ng/mL phorbol ester (PMA) and 500 ng/mL ionomycin. Two hours before completion of the incubation, Brefeldin A (10 μg/mL) was added. […] IFN-γ positive cells were determined as Th1-type cells, while IL-4 positive cells were determined as Th2-type cells.

Q: What does the source list for `CC[C@H](C)[C@@H]1NC(=O)[C@H](CCCNC(=N)N)NC(=O)[C@H](CC(=O)O)NC(=O)[C@H](CCSC)NC(=O)[C@H](CCCNC(=N)N)NC(=O)CNC(=O)CNC(=O)[C@H](Cc2ccccc2)NC(=O)[C@@H](NC(=O)[C@H](CO)NC(=O)[C@H](CO)NC(=O)[C@H](CCCNC(=N)N)NC(=O)[C@H](CCCNC(=N)N)NC(=O)[C@H](CC(C)C)NC(=O)[C@@H](N)CO)CSSC[C@@H](C(=O)N[C@@H](CC(N)=O)C(=O)N[C@@H](CO)C(=O)N[C@@H](Cc2ccccc2)C(=O)N[C@@H](CCCNC(=N)N)C(=O)N[C@@H](Cc2ccc(O)cc2)C(=O)O)NC(=O)CNC(=O)[C@H](CC(C)C)NC(=O)CNC(=O)[C@H](CO)NC(=O)[C@H](CCC(N)=O)NC(=O)[C@H](C)NC(=O)CNC1=O` [ANP, atrial natriuretic peptide]?
A: intracellular cGMP levels (human monocytes): little increase in cGMP levels at all concentrations; IL-10 production from dendritic cells (dendritic cells): enhance IL-10 production; IL-12 production from dendritic cells (dendritic cells): decrease both IL-12 and TNFα levels in a concentration-dependent manner; TNFα production from dendritic cells (dendritic cells): decrease both IL-12 and TNFα levels in a concentration-dependent manner; IL-12, TNF-α and IL-10 production from dendritic cells (dendritic cells; LPS-unstimulated dendritic cells, ANP alone): no effect on these cytokine productions; T cell proliferation induced by LPS-treated dendritic cells ([1]; ANP (10^-7 M) added simultaneously with LPS (1 μg/mL)): almost completely inhibited; proliferation of naive T cells ([1]; dendritic cells treated with ANP (10^-7 M) alone, without LPS): no effect on proliferation of naive T cells; intracellular cGMP levels (immature dendritic cells): increase intracellular cGMP levels in dendritic cells in a concentration-dependent manner from a concentration as low as 10^−12 M; IFN-γ-producing cells (Th1-type) [2]: decrease in IFN-γ-producing cells; IL-4-producing cells (Th2-type) [2]: increase in IL-4-producing cells

Q: Which “intracellular cGMP levels” value (human monocytes) does the source give for “C-type natriuretic peptide [CNP, reference compound]” here?
A: no effect on intracellular cGMP levels

Q: What about the “IL-10 production from dendritic cells” value (dendritic cells) of the same molecule?
A: no effect on cytokine expression

Q: And the “IL-12 production from dendritic cells” value (dendritic cells)?
A: no effect on cytokine expression

Q: And the “TNFα production from dendritic cells” value (dendritic cells)?
A: no effect on cytokine expression

Q: What about the “intracellular cGMP levels” value (immature dendritic cells) of the same molecule?
A: no effect on intracellular cGMP levels
